Results published in ChEMBL document CHEMBL1938257, “Synthesis of monomeric derivatives to probe memoquin's bivalent interactions” (J Med Chem, 2011).
Activity calls are given as the source filed them. No cut-off for these calls is given here.

Legend:
Acetylcholinesterase [1] = biological target: T1, Acetylcholinesterase (Homo sapiens, UniProt P22303); test: Inhibition of human recombinant AChE using acetylthiocholine iodide as substrate after 20 mins preincubation by Ellman method
Cholinesterase = Cholinesterase (Homo sapiens, UniProt P06276); test: Inhibition of human recombinant BuChE using butyrylthiocholine iodide as substrate after 20 mins preincubation by Ellman method
Beta-secretase 1 [2] = biological target: T2, Beta-secretase 1 (Homo sapiens, UniProt P56817); test: Inhibition of recombinant BACE1 expressed in baculovirus system using panvera peptide as substrate at 3 uM after 60 mins by spectrofluorometric analysis
[3] = Inhibition of amyloid beta (1 to 42) self-aggregation assessed as fibril formation at 10 uM after 24 hrs by thioflavin T-based fluorometric assay
[4] = Neurotoxicity in chicken primary telencephalon neuron expressing APP assessed as reduction in neuronal viability at 25 uM after 24 hrs by MTT assay; parameters: species or system Gallus gallus
Beta-secretase 1 [5] = biological target: T2, Beta-secretase 1; test: Inhibition of recombinant BACE1 expressed in baculovirus system using M-2420 as substrate preincubated for 1 hr before substrate addition measured after 15 mins by spectrofluorometric analysis
Acetylcholinesterase [6] = biological target: T1, Acetylcholinesterase; test: Inhibition of human recombinant AChE-induced amyloid beta 40 aggregation assessed as fibril formation at 100 uM after 24 hrs by thioflavin T-based fluorometric assay
[7] = Neurotoxicity in chicken primary telencephalon neuron expressing APP assessed as reduction in neuronal viability at 50 uM after 24 hrs by MTT assay; parameters: species or system Gallus gallus
Beta-secretase 1 [8] = biological target: T2, Beta-secretase 1; test: Inhibition of recombinant BACE1 expressed in baculovirus system using panvera peptide as substrate after 60 mins by spectrofluorometric analysis
Acetylcholinesterase [9] = biological target: T1, Acetylcholinesterase; test: Inhibition of human recombinant AChE-induced amyloid beta (1-40) aggregation assessed as fibril formation after 24 hrs by thioflavin T-based fluorometric assay
[10] = Neurotoxicity in chicken primary telencephalon neuron expressing APP assessed as reduction in neuronal viability at 0.01 to 50 uM after 24 hrs by MTT assay; parameters: species or system Gallus gallus
[11] = Inhibition of gamma-secretase in chicken primary telencephalon neuron cells expressing APP assessed as inhibition of amyloid beta-38 production by electrochemiluminescence assay; conditions: Gallus gallus
[12] = Inhibition of gamma-secretase in chicken primary telencephalon neuron cells expressing APP assessed as inhibition of amyloid beta-40 production by electrochemiluminescence assay; conditions: Gallus gallus
[13] = Inhibition of gamma-secretase in chicken primary telencephalon neuron cells expressing APP assessed as inhibition of amyloid beta-42 production by electrochemiluminescence assay; conditions: Gallus gallus

Chain of Cholinesterase (P06276 whole entry): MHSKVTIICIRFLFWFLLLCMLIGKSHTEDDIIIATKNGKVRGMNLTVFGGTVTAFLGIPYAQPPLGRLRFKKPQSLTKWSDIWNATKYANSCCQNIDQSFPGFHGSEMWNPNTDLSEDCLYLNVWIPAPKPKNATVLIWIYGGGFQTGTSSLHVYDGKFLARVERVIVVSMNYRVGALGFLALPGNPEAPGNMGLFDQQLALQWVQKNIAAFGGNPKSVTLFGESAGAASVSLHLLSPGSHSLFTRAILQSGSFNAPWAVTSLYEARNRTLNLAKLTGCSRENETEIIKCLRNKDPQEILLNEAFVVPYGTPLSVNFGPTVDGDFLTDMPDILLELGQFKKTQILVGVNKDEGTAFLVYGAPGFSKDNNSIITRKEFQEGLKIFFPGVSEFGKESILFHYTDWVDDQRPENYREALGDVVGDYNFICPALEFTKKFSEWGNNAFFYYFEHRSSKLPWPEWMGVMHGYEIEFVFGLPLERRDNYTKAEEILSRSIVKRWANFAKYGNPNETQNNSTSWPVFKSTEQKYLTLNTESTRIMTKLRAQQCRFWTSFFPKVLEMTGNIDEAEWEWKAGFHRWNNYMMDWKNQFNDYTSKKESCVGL
T2 sequence (P56817 whole entry): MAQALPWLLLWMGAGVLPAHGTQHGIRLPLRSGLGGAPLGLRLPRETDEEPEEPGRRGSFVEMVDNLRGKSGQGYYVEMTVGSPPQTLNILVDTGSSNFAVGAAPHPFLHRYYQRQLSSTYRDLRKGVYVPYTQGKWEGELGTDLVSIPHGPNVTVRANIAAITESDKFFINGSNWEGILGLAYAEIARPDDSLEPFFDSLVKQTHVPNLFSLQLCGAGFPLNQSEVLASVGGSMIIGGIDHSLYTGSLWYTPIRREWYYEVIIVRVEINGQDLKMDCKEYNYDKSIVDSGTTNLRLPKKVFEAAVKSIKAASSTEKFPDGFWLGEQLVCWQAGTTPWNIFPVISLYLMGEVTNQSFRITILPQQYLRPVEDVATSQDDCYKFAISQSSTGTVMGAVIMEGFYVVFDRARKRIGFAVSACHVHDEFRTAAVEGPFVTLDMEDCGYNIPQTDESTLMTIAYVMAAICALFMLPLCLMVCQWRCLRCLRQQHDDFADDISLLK
T1 sequence (P22303 whole entry): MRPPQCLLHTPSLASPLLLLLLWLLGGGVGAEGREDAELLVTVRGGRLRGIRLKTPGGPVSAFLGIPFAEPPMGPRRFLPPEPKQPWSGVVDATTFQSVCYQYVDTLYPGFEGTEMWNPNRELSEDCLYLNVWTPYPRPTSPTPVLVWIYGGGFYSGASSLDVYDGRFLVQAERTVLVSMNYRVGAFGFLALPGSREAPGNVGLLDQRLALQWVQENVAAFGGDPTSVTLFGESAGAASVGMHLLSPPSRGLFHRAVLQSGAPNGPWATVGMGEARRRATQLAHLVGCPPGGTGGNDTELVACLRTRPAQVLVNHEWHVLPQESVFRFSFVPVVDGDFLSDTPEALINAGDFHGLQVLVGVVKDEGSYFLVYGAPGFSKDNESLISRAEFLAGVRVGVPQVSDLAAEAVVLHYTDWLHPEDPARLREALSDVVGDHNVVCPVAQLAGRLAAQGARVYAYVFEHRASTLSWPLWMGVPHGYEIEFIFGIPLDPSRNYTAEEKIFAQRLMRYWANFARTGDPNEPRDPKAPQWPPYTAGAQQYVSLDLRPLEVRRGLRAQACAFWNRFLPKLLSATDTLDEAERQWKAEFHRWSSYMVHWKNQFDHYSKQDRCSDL

Compound	IC50 (Acetylcholinesterase [1]) [µM]	IC50 (Cholinesterase) [µM]	inhibition (Beta-secretase 1 [2])	inhibition [3] [%]	Activity [4]	IC50 (Beta-secretase 1 [5]) [µM]	inhibition (Acetylcholinesterase [6]) [%]	Activity [7]	IC50 (Beta-secretase 1 [8]) [µM]	IC50 (Acetylcholinesterase [9]) [µM]	Activity [10]	IC50 [11] [µM]	IC50 [12] [µM]	IC50 [13] [µM]
COc1ccccc1CN1CCC(N2CCC(NC3=CC(=O)c4ccccc4C3=O)CC2)CC1	17.2	3.16	inactive	21.4										
NCCCCCCNC1=CC(=O)c2ccccc2C1=O	64.5	294	inactive	13.8										
COc1ccccc1CNCCCCCCNC1=CC(=O)c2ccccc2C1=O	1.85	3.32	inactive	29.5										
COC1=CC(=O)C(N2CCC(C3CCN(Cc4ccccc4OC)CC3)CC2)=CC1=O	24.4	3.58	32.9%	20.5	Toxic									
CCN(CCCCCCNC1=CC(=O)C(NCCCCCCN(CC)Cc2ccccc2OC)=CC1=O)Cc1ccccc1OC [MEMOQUIN]		0.144	> 80%	66.8	Toxic	4.6								
CCN(CCCCCCNC1=CC(=O)C(C)=C(C)C1=O)Cc1ccccc1OC	0.029	0.314	12.8%	30.2			60.6							
CCN(CCCCCCNC1=CC(=O)C(OC)=CC1=O)Cc1ccccc1OC	0.0653	22.8	32.8%	45.7				Toxic						
CCN(CCCCCCNC1=CC(=O)c2ccccc2C1=O)Cc1ccccc1OC	0.00973	1.49	60.2%	27.3		3	69.1		2.8	45	Non-toxic	19	21	46
CCN(CCCCCCNC1=CC(=O)c2ncccc2C1=O)Cc1ccccc1OC	0.0279	2.56	inactive	15.4			41.3							
